This passage reports IC50 results from patent US12054488B2, “Pyrazolopyrimidine compound and preparation method therefor and use thereof in preparation of anti-cancer drug” (SUZHOU RAYMON PHARMACEUTICALS COMPANY, LTD., priority 2018, dated 2024).

Sequence of PI3K-alpha enzyme (P42336 whole entry): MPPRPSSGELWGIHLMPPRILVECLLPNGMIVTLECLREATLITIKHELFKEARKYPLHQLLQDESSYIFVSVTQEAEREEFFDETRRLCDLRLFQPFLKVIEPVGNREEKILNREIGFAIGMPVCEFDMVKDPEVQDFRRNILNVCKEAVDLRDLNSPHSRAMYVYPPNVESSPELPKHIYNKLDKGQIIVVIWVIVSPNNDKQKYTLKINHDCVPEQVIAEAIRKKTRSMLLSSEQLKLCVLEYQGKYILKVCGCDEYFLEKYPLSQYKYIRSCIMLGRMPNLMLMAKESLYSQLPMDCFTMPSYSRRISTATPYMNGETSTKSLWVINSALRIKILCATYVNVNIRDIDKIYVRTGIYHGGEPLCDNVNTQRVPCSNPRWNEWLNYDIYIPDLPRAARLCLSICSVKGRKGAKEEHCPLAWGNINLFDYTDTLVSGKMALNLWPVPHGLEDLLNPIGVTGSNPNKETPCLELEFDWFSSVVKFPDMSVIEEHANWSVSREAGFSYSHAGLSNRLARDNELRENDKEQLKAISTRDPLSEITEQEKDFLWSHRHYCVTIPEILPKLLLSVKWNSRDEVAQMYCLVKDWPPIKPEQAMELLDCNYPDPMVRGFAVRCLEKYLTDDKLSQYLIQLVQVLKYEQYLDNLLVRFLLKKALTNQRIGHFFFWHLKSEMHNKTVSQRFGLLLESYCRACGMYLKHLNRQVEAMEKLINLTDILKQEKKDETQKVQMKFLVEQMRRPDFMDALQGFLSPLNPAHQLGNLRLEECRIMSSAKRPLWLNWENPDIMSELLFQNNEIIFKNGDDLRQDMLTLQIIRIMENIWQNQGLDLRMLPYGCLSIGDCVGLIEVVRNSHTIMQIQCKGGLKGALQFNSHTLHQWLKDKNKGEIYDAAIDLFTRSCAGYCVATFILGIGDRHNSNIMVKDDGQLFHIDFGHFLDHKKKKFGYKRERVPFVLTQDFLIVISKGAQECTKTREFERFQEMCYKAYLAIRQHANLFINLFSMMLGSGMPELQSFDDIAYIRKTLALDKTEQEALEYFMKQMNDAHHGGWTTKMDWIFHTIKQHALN
Sequence of PI3K-alpha enzyme (P27986 whole entry partner): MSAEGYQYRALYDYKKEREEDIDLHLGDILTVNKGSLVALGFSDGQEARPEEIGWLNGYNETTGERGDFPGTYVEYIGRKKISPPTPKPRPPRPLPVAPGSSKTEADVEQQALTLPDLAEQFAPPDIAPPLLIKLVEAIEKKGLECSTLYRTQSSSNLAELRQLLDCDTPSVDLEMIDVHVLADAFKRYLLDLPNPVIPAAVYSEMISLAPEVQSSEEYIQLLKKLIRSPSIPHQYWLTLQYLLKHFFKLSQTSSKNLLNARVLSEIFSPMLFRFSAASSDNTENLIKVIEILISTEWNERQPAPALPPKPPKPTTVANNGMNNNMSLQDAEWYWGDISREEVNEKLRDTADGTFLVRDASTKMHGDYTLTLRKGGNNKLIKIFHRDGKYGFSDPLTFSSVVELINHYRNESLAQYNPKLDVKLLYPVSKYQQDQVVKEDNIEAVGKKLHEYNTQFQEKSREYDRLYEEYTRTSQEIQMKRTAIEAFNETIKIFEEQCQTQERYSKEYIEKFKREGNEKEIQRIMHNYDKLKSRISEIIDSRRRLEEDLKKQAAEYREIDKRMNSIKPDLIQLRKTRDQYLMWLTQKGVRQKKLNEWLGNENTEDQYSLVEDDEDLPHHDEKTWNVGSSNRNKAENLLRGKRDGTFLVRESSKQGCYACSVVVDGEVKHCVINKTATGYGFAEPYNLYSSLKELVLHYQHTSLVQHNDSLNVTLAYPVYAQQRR

The test deals with PI3K-alpha enzyme (Homo sapiens (Human), UniProt P42336). In words: PI3-Kinase (human) HTRF Assay kit, PI3K alpha enzyme IC50 determination. In kind it is biochemical. As to conditions: ATP 10 μM, PIP2 10 μM, 1% DMSO, 30 min at room temperature, double holes per concentration, read-out: half inhibitory concentration (IC50) on PI3K-alpha. How it is done:
• 4× Reaction Buffer was diluted to 1× with ddH2O, and 1M DTT was added to make the final concentration of 5 mM. Prepare fresh before each use. For example, to prepare 10 mL 1× Reaction Buffer, adding 2.5 mL 4× Reaction Buffer, 50 μL 1 M DTT, and 7.45 mL ddH2O. Throughout the experiment, freshly prepared 1× Reaction Buffer was used to prepare ATP working solution, substrate and enzyme mixed working solution, etc.
• The compound to be tested was dissolved in DMSO to 1 mM as a storage solution, and then diluted with DMSO in a 4-fold ratio for a total of 10 concentration points. 1 μL of each was added to 24 μL 1× Reaction Buffer. 5 μL of each diluted solution was added into a 384-well plate and contained 1% DMSO.
• 1× reaction buffer was used to prepare 2×PIP2 working solution to make the final concentration of 20 μM and PIP2 reaction final concentration of 10 μM, for example, to prepare 1 ml 1× reaction buffer/PIP2 working solution, add 20 μL of PIP2 to 980 μL 1× reaction buffer. This working solution should be prepared with 0.1-0.2 ml more to meet the control usage and dead volume.
• The kinase was diluted with 2×PIP2 working solution, and the concentration of the kinase working solution was 10 ng/well.
• That is, 2×PIP2 working solution.
• 10 mM ATP was diluted to 40 μM with 1× reaction buffer. In a 20 μL kinase reaction system, the concentration of ATP was 10 μM. For example, to prepare 2 ml ATP working solution, take 8 μL 10 mM ATP and add it to 1992 μL 1× reaction buffer.
• Stop A and Stop B were mixed in a ratio of 3:1 and can be used after at least 2 hours at room temperature.
• DM C, DM A and DM B were mixed in a ratio of 18:1:1, and can be used after at least 2 hours at room temperature.
• Emission Ratio (ER)=[…] Emission signal/620 nm Emission signal • The average emission intensity ratio (Emission Ratio) of the 100% inhibition control is recorded as: ER100% • The average Emission Ratio of the 0% inhibition control is recorded as: ER0%
• The inhibition rate is calculated with the following formula: Inhibition rate=(ERsample−ER0%)/(ER100%−ER0%)×100% [(ERpositive−ERsample)/(ERpositive−ERnegative)*100%]
Background: TR-FRET usually uses a lanthanide donor and a delayed reading to cut background.
Consider `Nc1n[nH]c2c(N3CCOCC3)nc(-c3ccc(NC(=O)Nc4ccc(CO)cc4)cc3)nc12` [Compound I-1, 1-(4-(3-amino-7-morpholino-1H-pyrazolo[4,3-d]pyrimidin-5-yl)phenyl)-3-(4-(hydroxymethyl)phenyl)urea], for which the IC50 is 10.7 nM. For `CC1(C)C(=O)Nc2cc(NC(=O)Nc3ccc(-c4nc(N5CCOCC5)c5[nH]nc(N)c5n4)cc3)ccc21` [Compound I-4, 1-(4-(3-amino-7-morpholino-1H-pyrazolo[4,3-d]pyrimidin-5-yl)phenyl)-3-(3,3-dimethyl-2-oxoindolin-6-yl)urea] the value was 108 nM. For `Nc1n[nH]c2c(N3CCOCC3)nc(-c3ccc(NC(=O)Nc4ccc(COCCN5CCOCC5)cc4)cc3)nc12` [Compound I-6, 1-(4-(3-amino-7-morpholino-1H-pyrazolo[4,3-d]pyrimidin-5-yl)phenyl)-3-(4-((2-morpholinoethoxy)methyl)phenyl)urea] the value was 40.9 nM. For `Nc1n[nH]c2c(N3CCOCC3)nc(-c3ccc(NC(=O)Nc4ccc(CO)c(C(F)(F)F)c4)cc3)nc12` [Compound I-5, 1-(4-(3-amino-7-morpholino-1H-pyrazolo[4,3-d]pyrimidin-5-yl)phenyl)-3-(4-(hydroxymethyl)-3-(trifluoromethyl)phenyl)urea] the value was 228 nM. As to `CS(=O)(=O)NC(=O)Cc1ccc(NC(=O)Nc2ccc(-c3nc(N4CCOCC4)c4[nH]nc(N)c4n3)cc2)cc1` [Compound I-3, 2-(4-(3-(4-(3-amino-7-morpholino-1H-pyrazolo[4,3-d]pyrimidin-5-yl)phenyl)ureido)phenyl)-N-(methylsulfonyl)acetamide], the IC50 was 89.1 nM.

For the compound `CC(C)(O)c1ccc(NC(=O)Nc2ccc(-c3nc(N4CCOCC4)c4[nH]nc(N)c4n3)cc2)cc1` [Compound I-2, 1-(4-(3-amino-7-morpholino-1H-pyrazolo[4,3-d]pyrimidin-5-yl)phenyl)-3-(4(2-hydroxypropan-2-yl)phenyl)urea], the IC50 turned out to be 89.6 nM.
